How the values were obtained:
ARP-1 cells = test: Apoptosis by Annexin V-FITC staining and PI exclusion, ARP-1; assay type: cell-based, human; details: discussion summary of Annexin V and TUNEL results
Method: (§1) ARP-1 cells and MDA-MB-231 cells were treated with media only, 32 μg/ml GAG chains and 32 μg/ml neoglycans. The ARP-1 cells were harvested following a 48 hour incubation period and the MDA-MB-231 cells were harvested after a 96 hour incubation period. The induction of apoptosis was determined by staining with fluorescein isothiocyanated-labeled Annexin V (Annexin V-FITC, CALTAG Laboratories, Burlingame, Calif.) following the manufacturer's instructions. Just prior to analysis, 0.5 mg/ml propidium iodide (PI, Sigma, St Louis, Mo.) in PBS, pH. 7.4 was added. Flow cytometry was performed with a Beckman Dickenson (Mountain View, Calif.) FACScan using Cellquest 1.2 software. Annexin V-FITC positive, PI negative cells were considered apoptotic.
(§2) Annexin-V binds to phosphatidylserine which is on the inner cytoplasmic membrane of healthy cells and on the outer cytoplasmic membrane of apoptotic cells .

[1] = test system: multiple myeloma cell line; test: Viability of a multiple myeloma cell line treated with nPG, EDAC modified GAG chains or native GAG chains; assay type: cell-based; details: data not shown
From the text: Synthetic proteoglycans termed neoproteoglycans (nPG), were produced by EDAC conjugation of the GAG chains heparin or chondroitin sulfate and a protein scaffold. Treatment of a multiple myeloma cell line with either nPG preparation or controls produced by EDAC modification of GAG chains alone reduced cell viability (data not shown). […] Therefore, neoglycans (neoglycans) consisting of EDAC modified heparin (neoheparin) or chondroitin sulfate (neoCS, neoCS) were produced and evaluated for potential anticancer activities.

[2] = test system: MDA-MB-231 breast cancer tumors; test: Treatment of established MDA-MB-231 tumors in nude mice; assay type: in vivo; details: single 1.6 mg dose injected into the tumor followed by electroporation
Method: BALB/c nu/nu mice were anesthetized by intraperitoneal administration of a mixture of ketamine (42.8 mg/ml), xylazine (8.6 mg/ml), and acepromazine (1.4 mg/ml) at a dose of 1.8-2.0 ml/kg. Human breast cancer tumors were established following subcutaneous injection of 2×10^6 MDA-MB-231 cells in PBS. Two tumors were established on each mouse. Tumors were injected with a single 1.6 mg dose of chondroitin sulfate or chondroitin sulfate neoglycan in a 50 μl total volume. Immediately following injection, a caliper electrode was positioned on t wo sides of the tumor with contact on the skin. An electrical pulse was applied to the tumor through the electrodes with a BTS EC830 power supply (Genetronics, Inc., San Diego, Calif.). The tumors were measured with calipers and tumor volumes calculated according to the equation: V=(L×W2)×0.5. The results reflect two separate experiments in which one tumor was treated with chondroitin sulfate and the second tumor on the same animal was treated with neoCS. Both experiments included 7 tumors per treatment group.
Therefore, chondroitin sulfate neoglycan was used for evaluation of in vivo neoglycan activity. […] Two tumors per animal developed and were measured just prior to treatment. […] The size of each tumor was determined 48 hours later and at several subsequent time points.

[3] = test system: ARP-1 multiple myeloma cell line; test: MTT cell viability assay, ARP-1 cells; assay type: cell-based, human; details: 500 μg/ml (FIG. 1 legend), 72 hours
From the text: ARK, ARP-1, and CAG cells are B lymphoid cell lines established at the Arkansas Cancer Research Center from bone marrow aspirates of multiple myeloma patients (Ridley, Xiao et al. 1993). U266 is a multiple myeloma cell line that was obtained from the American Type Culture Collection (ATCC, Manassas, Va.). ARH-77 cells (ATCC, Manassas, Va.) were established from the peripheral blood of a patient with plasma cell leukemia (Burk, Drewinko et al. 1978). Peripheral blood mononuclear cells (PBMCs) were collected from healthy donors by Ficol-Hypaque separation of whole blood and were mitogen activated for 3 days with 2.5 μg/ml PHA (Sigma, St Louis, Mo.) prior to neoglycan treatment. The cell lines and peripheral blood mononuclear cells were grown in RPMI 1640 supplemented with 10% fetal bovine serum, 2 mM L-glutamine, 1 00 U/ml penicillin and 100 μg/ml streptomycin sulfate. […]
Cells were plated in the appropriate media on 96-well plates in a 100 μl total volume. […] Cell viability was determined based mitochondrial conversion of 3[4,5-Dimethylthiazol-2-yl]-2,5-diphenyltetrazolium bromide (MTT, Sigma, St Louis, Mo.) to formazan. […] The plates were gently agitated until the color reaction was uniform and the OD540 was determined using a microplate reader. […]

MDA-MB-231 cells = test: Apoptosis by Annexin V-FITC staining and PI exclusion, MDA-MB-231; assay type: cell-based, human; details: discussion summary of Annexin V and TUNEL results
Method: as §1, §2

Row | Substance | induction of apoptosis in ARP-1 cell line (FIG. 2) (ARP-1 cells) | effect on multiple myeloma cell viability / growth [1] | effect on established MDA-MB-231 tumors / tumor burden [2] | effect of native GAG chains on cell proliferation [3] | induction of apoptosis in MDA-MB-231 cell line (FIG. 2) (MDA-MB-231 cells)
1 | chondroitin sulfate | do not induce apoptosis | no growth reducing affect | does not reduce the tumor burden | no affect | do not induce apoptosis
2 | heparin | do not induce apoptosis | no growth reducing affect | – | slightly enhances cell proliferation | do not induce apoptosis
